These results are taken from patent US20050153288A1, “Methods for identifying gibberellin responsive genes using cultured vegetable cells” (priority 2001, published 2005).

SMILES strings stand for the structures. Entries after “also recorded” stand apart in the source; their conditions may differ. Where two headings read alike, the source gives them in different places.

The subject of test [1] is CIGR1 gene and CIGR2 gene. The test can be described thus: Induction of CIGR1 and CIGR2 gene expression by gibberellin in cultured rice cells (Northern blot hybridization). The class given is cell-based, rice (Oryza sativa cv. Nipponbare). Particulars: for induction of CIGR1 and CIGR2 gene expression by gibberellin species: cultured rice cells treated for ten minutes. On the procedure: (§1) (1) Rice cultured cells: The cultured cells of rice were induced from germinating rice seeds (Oryza sativa cv. Nipponbare) on an N6 agar plate containing 1 ppm 2,4-D (2,4-dichlorophenoxyacetic acid). The cells were successively cultured in liquid N6 medium as follows: Once a week, cells of about 1 ml in volume were transferred to 150 ml of N6 medium. Every two weeks, cell clusters were passed through a 20-mesh metal screen to reduce their size. Cells which had been transferred to 30 ml of medium with no screen treatment, and then shake-cultured for four to six days, were used for extraction of RNA for Northern blotting.
(§2) (2) RNA extraction: The extraction of total RNA from cultured cells and green leaves of rice was carried out according to the phenol-SDS method. A Polytron homogenizer was used to homogenize living tissue in the presence of about tenfold or more volume to tissue-volume of phenol (about 90% saturated with water), and a volume of buffer solution (50 mM Tris-HCl pH 9.0, 1% SDS, 50 mM NaCl) equal to this phenol volume. The aqueous phase obtained by centrifugation was then repeatedly extracted with phenol. Total nucleic acid was precipitated by adding 0.6 volume of isopropanol to the extract and stirring the mixture. After dissolving the precipitate in water, a 0.25 volume of 10M LiCl was added, and the mixture was cooled on ice. High molecular weight RNA was collected by centrifugation, washed with 70% ethanol, and then dissolved in a small volume of water to be used as an RNA sample.
[…] Gibberellin (GA3 dissolved in ethanol) was added to make up each final concentration, cells were cultured with shaking for predetermined periods, and then used for RNA extraction. Nipponbare plants grown for three weeks after seeding were sprayed with gibberellin. The third and fourth leaves were collected at certain intervals, and total RNA was extracted. Elicitor treatment was carried out by directly adding aqueous elicitor solution to cultured cells of rice.
(4) Hybridization: RNA for Northern hybridization was denatured using the glyoxal method. 2.7 μl of glyoxal (final concentration, 1M), 1.6 μl of sodium phosphate (pH 7.0, final concentration, 10 mM), and 8 μl of dimethylsulfoxide (final concentration, 50%) were added to 10 μg of total RNA (3.7 μl). The mixture was kept at 50° C. for one hour and then subjected to electrophoresis in 1.4% agarose (10 mM sodium phosphate, pH 7.0). After electrophoresis, RNA was blotted onto a nylon membrane (Biodyne A). The RNA was fixed onto the membrane by treatment for two hours at 80° C. Hybridization was carried out in a mixture of 50% formamide, 0.1% SDS, 0.1 mg/ml salmon sperm DNA, 5×SSPE (0.9 M NaCl, 50 mM sodium phosphate, 5 mM EDTA, pH 7.4), and 5× Denhardt's solution (0.1% bovine serum albumin, 0.1% Ficoll, 0.1% polyvinylpyrrolidone) at 42° C. for one day. The membrane was then washed with 0.1×SSC (15 mM NaCl, 1.5 mM sodium citrate) three times for five minutes each time at room temperature, and twice for 30 minutes each time at 65° C., and then exposed on x-ray film.

The test system of test [2] is CIGR1 gene and CIGR2 gene. In words: Effect of protein kinase/phosphatase inhibitors on chitin heptamer induction of CIGR1 and CIGR2 genes in cultured rice cells. To be noted: inhibitor added ten minutes before treatment; okadaic acid 1 μM, lavendustin A 30 μM, K-252a 20 μM. The class given is cell-based. On the procedure:
(§3) FIG. 11 depicts photographs representing the effects of protein kinase inhibitors on elicitor response and gibberellin response. The following compounds were added ten minutes before treatment with chitin heptamer (GN7) or gibberellin (GA3). (A): the positive elicitor response control; (B) : okadaic acid (1 μM); (C) : lavendustin A (30 μM); (D) : K-252a (20 μM).
as §1, §2
(§4) (3) A method for gibberellin treatment of cultured cells and green leaves: The cultured cells were pre-washed several times with 2,4-D-free N6 medium, and then suspended in the same medium and shaken for two hours at 25° C. […]

Test [3] relates to CIGR1 gene and CIGR2 gene. The test can be described thus: Effect of protein kinase/phosphatase inhibitors on GA3 induction of CIGR1 and CIGR2 genes in cultured rice cells. It counts as cell-based. Particulars: inhibitor added ten minutes before treatment; okadaic acid 1 μM, lavendustin A 30 μM, K-252a 20 μM. On the procedure:
as §3, §1, §2, §4

Test [4] deals with elicitor-responsive genes. To be noted: K-252a pretreatment; cited from earlier work.
The subject of another test is α-amylase. To be noted: aleurone layer of wheat, cited from earlier work.
Test [5] deals with CIGR1 gene and CIGR2 gene. The test can be described thus: Elicitor (chitin/chitosan oligomer) induction of CIGR1 and CIGR2 gene expression in cultured rice cells (Northern blot hybridization). It counts as cell-based, rice (Oryza sativa cv. Nipponbare). The method, then: as §1, §2
(3) A method for gibberellin treatment of cultured cells and green leaves: The cultured cells were pre-washed several times with 2,4-D-free N6 medium, and then suspended in the same medium and shaken for two hours at 25° C. Gibberellin (GA3 dissolved in ethanol) was added to make up each final concentration, cells were cultured with shaking for predetermined periods, and then used for RNA extraction. Nipponbare plants grown for three weeks after seeding were sprayed with gibberellin. The third and fourth leaves were collected at certain intervals, and total RNA was extracted. […]

Test [6] concerns CHRC, a carotenoid-associated protein in the chromoplasts of cucumber petals. Particulars: cited from earlier work.
Test [7] deals with CIGR1 gene and CIGR2 gene. In words: Expression of CIGR1 and CIGR2 genes in green leaves of rice after GA3 spraying. The class given is in vivo, rice (Nipponbare). To be noted: third and fourth leaves, three weeks after seeding, sprayed with GA3 (50 μM). The method, then:
as §2, §4
In the presence of auxins, cultured plant cells are thought to be in an undifferentiated state. […] Thus, the responses of these two genes to gibberellin were analyzed in the green leaves of rice. […]

[8] abbreviates: ten minutes of GA3 treatment, 2,4-D-free medium.

For the molecule `C=C1C[C@]23C[C@H]1CC[C@H]2[C@]1(C(=O)O)CC[C@H](O)[C@@](C)(C(=O)O)[C@H]1[C@@H]3C(=O)O` [GA13], the “induction of CIGR1 and CIGR2 gene expression by gibberellin species” value (“induction … by gibberellin species” below) in test [1] is given as “only active type gibberellins induced the expression of both genes”.
As for `O=C(O)c1cc(N(Cc2ccccc2O)Cc2cc(O)ccc2O)ccc1O` [Lavendustin A], the “inhibition of induction of both genes by chitin heptamer” value (“inhibition … by chitin heptamer” below) in test [2] is recorded as “hardly inhibited”. Besides, in test [3], the “inhibition of induction of both genes by GA3” value (“inhibition … by GA3” for short) is recorded as “inhibited induction by GA3 almost completely”.
`C=C1C[C@]23C[C@H]1CC[C@H]2[C@@]12CC[C@H](O)[C@@](C)(C(=O)O1)[C@H]2[C@@H]3C(=O)O` [GA4]: the “induction … by gibberellin species” value in test [1] is given as “induced the expression of both genes”.
In the case of `COC(=O)[C@@]1(O)C[C@H]2O[C@]1(C)n1c3ccccc3c3c4c(c5c6ccccc6n2c5c31)C(=O)NC4` [K-252-A], in test [2], the “inhibition … by chitin heptamer” value is given as “almost completely inhibited”. In test [4], the “inhibition of induction of expression of elicitor-responsive genes” value is on record as “strongly inhibited”. In addition, the “inhibition … by GA3” value in test [3] is listed as “almost completely inhibited”. Also, the “inhibition of gibberellin's induction of α-amylase” value in the test with α-amylase (listed as K252a) is “hardly inhibited induction”.
`C=C1C[C@]23C[C@@]1(O)CC[C@H]2[C@@]12CC[C@H](O)[C@@](C)(C(=O)O1)[C@H]2[C@@H]3C(=O)O` [GA1]: the “induction … by gibberellin species” value in test [1] is “induced the expression of both genes”.
With `CC(=O)N[C@H]1[C@H](O[C@@H]([C@H](O)[C@H](C=O)NC(C)=O)[C@H](O)CO)O[C@H](CO)[C@@H](O[C@@H]2O[C@H](CO)[C@@H](O[C@@H]3O[C@H](CO)[C@@H](O[C@@H]4O[C@H](CO)[C@@H](O[C@@H]5O[C@H](CO)[C@@H](O[C@@H]6O[C@H](CO)[C@@H](O)[C@H](O)[C@H]6NC(C)=O)[C@H](O)[C@H]5NC(C)=O)[C@H](O)[C@H]4NC(C)=O)[C@H](O)[C@H]3NC(C)=O)[C@H](O)[C@H]2NC(C)=O)[C@@H]1O` [chitin heptamers, N-acetylchitoheptaose], the “response of both genes to chitin oligomers and chitosan oligomers” value in test [5] (chitin monomers to heptamers, tetramer and heptamer chitosan oligomers) is “strongest responses”. Moreover, in test [5] (time-course after chitin heptamer treatment), the “time up to which expression continued to increase” value is given as “up to 90 minutes”. The “increase in mRNA amount of both genes after elicitor treatment” value in test [5] (time-course in cultured rice cells) is given as “Significant increases in mRNA amount were observed in both genes five minutes after treatment”.
With `C=C1[C@@H](O)[C@@H]2O[C@]3(CC[C@H](/C=C/[C@@H](C)[C@@H]4CC(C)=C[C@@]5(O[C@H](C[C@@](C)(O)C(=O)O)CC[C@H]5O)O4)O3)CC[C@H]2O[C@@H]1[C@@H](O)C[C@H](C)[C@H]1O[C@@]2(CCCCO2)CC[C@H]1C` [okadaic acid], the “inhibition … by chitin heptamer” value in test [2] is recorded as “hardly inhibited”. Also, in test [3], the “inhibition … by GA3” value is listed as “inhibited almost completely”. In addition, the “inhibition of gibberellin's induction of α-amylase” value in the test with α-amylase was “specifically inhibited; also recorded: inhibited by okadaic acid”.
In the case of `C=C1C[C@]23C[C@@]1(O)CC[C@H]2[C@@]12C=C[C@H](O)[C@@](C)(C(=O)O1)[C@H]2[C@@H]3C(=O)O` [GA3], the “expression of CIGR1 and CIGR2 genes over time after GA3 treatment” value in test [1] (cells pre-washed with 2,4-D-free medium, two hours of pre-culture in the same medium) is “Transient expression with a maximum at ten minutes after treatment”. For the same molecule, in test [1], the “induction … by gibberellin species” value is reported as “induced the expression of both genes”. For the same molecule, the “change in gene expression (CIGR1, CIGR2) after GA3 treatment” value in test [1] (suspension-cultured cells in medium comprising 2,4-D, observed for three hours after treatment) is “no significant change in expression amount was found; also recorded: No change in gene expression was detected”. Also, in test [1] (setting [8]), the “GA3 concentration at which induction of expression of both genes began to appear” value is 10^−6 M and the “GA3 concentration at which induction reached near saturation” value is listed as ~10^−4 M. Further, in test [6], the “GA3 concentration required for induction of CHRC” value is reported as “at least 10^−7 M” and the “GA3 concentration up to which CHRC expression level increased approximately linearly” value is “up to 10^−4 M”. Besides, in test [7], the “time of maximum transient expression of both genes after spraying” value was 30 min.
Take `C=C1C[C@]23C[C@@]1(O)CC[C@H]2[C@]1(C(=O)O)CCC[C@@](C)(C(=O)O)[C@H]1[C@@H]3C(=O)O` [GA17]: the “induction … by gibberellin species” value in test [1] was “only active type gibberellins induced the expression of both genes”.
